From ChEMBL document CHEMBL1152054, “Synthesis and evaluation of a -lactam-containing dipeptide analog as a protease inhibitor” (Bioorg Med Chem Lett, 1996)

Key:
[1] = Compound was tested for inhibition of carboxypeptidase Y serine protease to produce one-half maximal enzyme activity.
[2] = molecular target: Chymotrypsinogen B (Homo sapiens, UniProt P17538); experiment: Compound was tested for inhibition of alpha-chymotrypsin serine protease to produce one-half maximal enzyme activity.
[3] = Compound was tested for inhibition of proteinase K serine protease to produce one-half maximal enzyme activity.
[4] = Compound was tested for inhibition of elastase serine protease to produce one-half maximal enzyme activity.

Sequence of Chymotrypsinogen B (P17538 34-164 limits assumed, other chains not shown): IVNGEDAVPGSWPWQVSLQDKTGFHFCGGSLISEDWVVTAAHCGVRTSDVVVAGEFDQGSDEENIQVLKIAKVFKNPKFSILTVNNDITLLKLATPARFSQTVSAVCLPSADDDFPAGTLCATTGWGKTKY
Sequence of Chymotrypsinogen B (P17538 167-263 limits assumed, other chains not shown): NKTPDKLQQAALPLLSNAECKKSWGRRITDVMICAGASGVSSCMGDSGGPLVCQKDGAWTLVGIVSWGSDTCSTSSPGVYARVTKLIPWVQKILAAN

Inhibition constant [1]: 0.3 mM
Inhibition constant [2]: 0.3 mM
Inhibition constant [3]: > 1.2 mM
Inhibition constant [4]: > 1.2 mM
SMILES: COC(=O)CN1CC(Cc2ccccc2)(NC(=O)c2ccccc2)C1=O (centres undefined)
